Laboratory results published in ChEMBL document CHEMBL1201862, “PubChem BioAssay data set” (2004).
The source made the active and inactive calls. Cut-off read from the data, not from the text of the source, for most assays here: actives have a measured EC50 and inactives only a lower limit.

Columns and labels:
[1] = target: Luciferin 4-monooxygenase (Photinus pyralis, UniProt P08659); experiment: inhibition of purified Photinus pyralis luciferase – biochemical, luminescence, dose response (AID 1891)
[2] = Luminescence Cell-Based Dose Confirmation HTS to Identify Inhibitors of Platelet Dense Granule Release. [Related pubchem assays: 1663 (Primary HTS), 1678 (Summary of Project)]; assay type: functional
[3] = microbe, parasite or virus in culture; assay type: functional; conditions: Mycobacterium tuberculosis
[4] = test system: H9c2; experiment: cells; assay type: functional, cell-based; conditions: Rattus norvegicus, H9c2, Myocardium;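 note: confirmatory concentration-response retest of ultra-high-throughput screening hits for modulation of myocardial damage; cell death induced by hydrogen peroxide oxidative stress; compound pretreatment for 60 min then peroxide exposure for 2 h; potency is for protecting the cells against peroxide damage rather than for killing them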
[5] = target: T1, RNA-binding protein pos-1 (Caenorhabditis elegans, UniProt G5EF15); experiment: disruptors of C. elegans POS-1 RNA interaction – biochemical, fluorescence polarization, dose response (AID 1964);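 note: purified POS-1 fused to maltose binding protein made in E. coli; potency of compounds blocking POS-1 binding to fluorescent RNA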
T1 sequence (G5EF15 whole entry): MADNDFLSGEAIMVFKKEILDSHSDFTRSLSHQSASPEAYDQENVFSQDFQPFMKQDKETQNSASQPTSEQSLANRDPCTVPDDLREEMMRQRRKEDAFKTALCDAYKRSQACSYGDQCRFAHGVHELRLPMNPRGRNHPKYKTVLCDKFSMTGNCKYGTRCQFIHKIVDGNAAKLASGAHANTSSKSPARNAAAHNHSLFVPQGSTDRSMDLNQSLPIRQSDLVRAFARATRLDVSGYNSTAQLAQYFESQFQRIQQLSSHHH

[6] = target: T2, Zinc finger protein mex-5 (Caenorhabditis elegans, UniProt Q9XUB2); experiment: potency of MEX-5 RNA-binding blockers – biochemical, C. elegans, fluorescence polarization, dose response (AID 1960)
T2 sequence (Q9XUB2 whole entry): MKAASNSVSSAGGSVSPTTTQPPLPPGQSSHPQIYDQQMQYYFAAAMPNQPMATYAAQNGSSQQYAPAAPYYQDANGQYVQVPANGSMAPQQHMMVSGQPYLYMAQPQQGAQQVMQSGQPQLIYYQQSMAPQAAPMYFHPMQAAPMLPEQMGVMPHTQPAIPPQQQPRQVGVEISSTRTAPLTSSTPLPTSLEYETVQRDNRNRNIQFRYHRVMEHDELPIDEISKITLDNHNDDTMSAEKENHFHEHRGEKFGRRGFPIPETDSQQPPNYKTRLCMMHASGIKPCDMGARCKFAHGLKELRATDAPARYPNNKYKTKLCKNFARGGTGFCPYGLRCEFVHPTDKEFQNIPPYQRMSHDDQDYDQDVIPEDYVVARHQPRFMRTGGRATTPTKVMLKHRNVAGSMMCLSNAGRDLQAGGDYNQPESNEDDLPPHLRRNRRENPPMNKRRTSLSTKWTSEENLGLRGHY

[7] = target: T3, Calpain-2 catalytic subunit (Sus scrofa, UniProt P43367); experiment: m-calpain protease blockers, concentration series – biochemical, fluorogenic peptide substrate, dose response (AID 1420); assay type: functional
T3 sequence (P43367 whole entry): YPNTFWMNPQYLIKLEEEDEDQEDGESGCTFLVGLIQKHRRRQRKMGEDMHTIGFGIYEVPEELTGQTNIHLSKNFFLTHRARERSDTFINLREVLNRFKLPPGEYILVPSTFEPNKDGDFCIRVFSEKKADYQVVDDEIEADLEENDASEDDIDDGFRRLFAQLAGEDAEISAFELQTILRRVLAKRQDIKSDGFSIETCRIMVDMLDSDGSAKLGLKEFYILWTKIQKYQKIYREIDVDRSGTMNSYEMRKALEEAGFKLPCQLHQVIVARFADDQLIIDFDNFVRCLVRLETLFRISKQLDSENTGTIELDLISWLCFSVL

[8] = target: Cytochrome P450 3A4 (Homo sapiens, UniProt P08684);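 note: CYP3A4 tested as one member of a cytochrome P450 panel screen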
[9] = fluconazole-exposed Candida albicans growth modulators – fluorescence, retest, confirmation (AID 2467); assay type: functional, cell-based
[10] = target: Cytochrome P450 2D6 (Homo sapiens, UniProt P10635);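 note: CYP2D6 member of a cytochrome P450 panel assay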
[11] = NIH-3T3 fibroblast cytotoxicity, dose response, cytotoxicity control, cell-based, fluorescence, Alamar Blue, secondary assay (AID 2327); assay type: functional;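 note: NIH-3T3 mouse fibroblasts cultured with fluconazole at 8 µg/mL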
[12] = target: FAD-linked sulfhydryl oxidase ALR (Homo sapiens, UniProt P55789); experiment: ALR-catalysed DTT oxidation blockers – biochemical, H2O2 detection, luminescence, cherry-pick, dose response (AID 493248)
[13] = target: Cytochrome P450 2C9 (Homo sapiens, UniProt P11712)
[14] = DRD fibroblast viability loss – cell-based, non-viral oncogenic, luminescence, dose response (AID 1934); assay type: functional; conditions: Homo sapiens
[15] = test system: BJ; experiment: cells; assay type: functional, cell-based; conditions: Homo sapiens
[16] = test system: BJ; experiment: BJ-TERT-LT-ST fibroblast viability loss – cell-based, RAS-independent, luminescence, dose response (AID 1935); assay type: functional; conditions: Homo sapiens;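 note: BJ fibroblasts immortalized with TERT plus LT and ST oncogenes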
[17] = test system: BJ; experiment: BJ-TERT fibroblast viability loss – cell-based, RAS-independent, luminescence, dose response (AID 1933); assay type: functional; conditions: Homo sapiens
[18] = viability of uninfected HEp-2 cells – cell-based, HTS, cytotoxicity control for RSV inhibitor project, dose response (AID 2410); assay type: functional; conditions: human respiratory syncytial virus
[19] = Trypanosoma cruzi growth suppression in host cells – NIH3T3 host cells, beta-gal luminescence, confirmation (AID 2044); assay type: functional, cell-based;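 note: intracellular parasites grown in NIH/3T3 mouse fibroblasts as host cells; luminescent beta-galactosidase reporter signal from transgenic T. cruzi replicating inside host cells; inhibitors lower the luminescence signal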
[20] = NIH3T3 cell viability loss – ATP luminescence, mouse fibroblasts, counter-screen, dose response (AID 2010); assay type: functional, cell-based;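 note: cells exposed to compound for about 90 hours before reading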
[21] = test system: INS1; experiment: INS-1E survival protection against cytokine death – cell-based, luminescence, retest, dose response (AID 449756); assay type: functional; conditions: Rattus norvegicus;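 note: cell death triggered by IL-1 beta plus TNF-alpha plus IFN-gamma mixture; protective hits raise ATP signal compared with cytokine alone wells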

Sequence of FAD-linked sulfhydryl oxidase ALR (P55789 whole entry): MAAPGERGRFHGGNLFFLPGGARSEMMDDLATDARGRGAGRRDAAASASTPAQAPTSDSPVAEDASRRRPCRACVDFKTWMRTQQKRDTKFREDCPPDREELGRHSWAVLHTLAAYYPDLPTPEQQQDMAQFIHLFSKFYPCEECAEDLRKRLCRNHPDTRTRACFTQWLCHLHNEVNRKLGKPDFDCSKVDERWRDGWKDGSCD
Sequence of Cytochrome P450 2D6 (P10635 whole entry): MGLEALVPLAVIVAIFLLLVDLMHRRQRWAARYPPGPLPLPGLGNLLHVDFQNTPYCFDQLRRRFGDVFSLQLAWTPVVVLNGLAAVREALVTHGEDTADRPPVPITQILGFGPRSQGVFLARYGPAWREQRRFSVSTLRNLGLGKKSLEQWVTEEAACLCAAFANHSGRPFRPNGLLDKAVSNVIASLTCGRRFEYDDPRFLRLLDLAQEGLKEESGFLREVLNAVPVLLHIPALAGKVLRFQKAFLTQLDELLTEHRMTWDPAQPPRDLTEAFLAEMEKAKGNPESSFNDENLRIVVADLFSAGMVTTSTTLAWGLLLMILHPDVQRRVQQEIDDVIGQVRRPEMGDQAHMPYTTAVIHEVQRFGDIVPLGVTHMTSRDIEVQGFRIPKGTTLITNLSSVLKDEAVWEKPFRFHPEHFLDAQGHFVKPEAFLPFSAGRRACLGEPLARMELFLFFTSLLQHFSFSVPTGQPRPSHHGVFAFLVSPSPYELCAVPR
Sequence of Luciferin 4-monooxygenase (P08659 whole entry): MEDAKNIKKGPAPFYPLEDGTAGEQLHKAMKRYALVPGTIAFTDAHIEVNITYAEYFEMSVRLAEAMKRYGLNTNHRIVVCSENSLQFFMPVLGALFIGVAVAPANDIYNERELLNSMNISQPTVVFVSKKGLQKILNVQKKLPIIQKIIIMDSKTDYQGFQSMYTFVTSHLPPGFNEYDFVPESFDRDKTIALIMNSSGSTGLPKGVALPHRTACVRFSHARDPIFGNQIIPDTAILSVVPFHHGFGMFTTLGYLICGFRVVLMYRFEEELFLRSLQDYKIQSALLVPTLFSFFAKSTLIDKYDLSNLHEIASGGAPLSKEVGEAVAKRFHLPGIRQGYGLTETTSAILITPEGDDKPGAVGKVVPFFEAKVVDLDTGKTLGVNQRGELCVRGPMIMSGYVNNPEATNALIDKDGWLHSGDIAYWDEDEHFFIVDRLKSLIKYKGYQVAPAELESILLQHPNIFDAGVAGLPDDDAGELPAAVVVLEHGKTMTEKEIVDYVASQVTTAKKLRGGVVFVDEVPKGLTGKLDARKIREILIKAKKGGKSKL
Sequence of Cytochrome P450 2C9 (P11712 whole entry): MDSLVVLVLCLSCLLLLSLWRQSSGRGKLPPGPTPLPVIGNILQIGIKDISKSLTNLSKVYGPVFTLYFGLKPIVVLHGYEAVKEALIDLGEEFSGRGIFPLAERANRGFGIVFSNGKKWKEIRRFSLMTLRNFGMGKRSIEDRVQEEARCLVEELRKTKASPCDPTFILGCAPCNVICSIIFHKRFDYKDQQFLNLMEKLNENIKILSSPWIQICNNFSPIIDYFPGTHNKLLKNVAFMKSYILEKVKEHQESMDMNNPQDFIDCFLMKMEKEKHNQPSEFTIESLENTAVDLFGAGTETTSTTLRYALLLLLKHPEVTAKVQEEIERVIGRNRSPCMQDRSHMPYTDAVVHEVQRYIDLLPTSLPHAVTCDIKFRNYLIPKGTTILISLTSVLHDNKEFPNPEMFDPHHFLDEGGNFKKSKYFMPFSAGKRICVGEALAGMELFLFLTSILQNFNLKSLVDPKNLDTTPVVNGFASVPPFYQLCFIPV
Sequence of Cytochrome P450 3A4 (P08684 whole entry): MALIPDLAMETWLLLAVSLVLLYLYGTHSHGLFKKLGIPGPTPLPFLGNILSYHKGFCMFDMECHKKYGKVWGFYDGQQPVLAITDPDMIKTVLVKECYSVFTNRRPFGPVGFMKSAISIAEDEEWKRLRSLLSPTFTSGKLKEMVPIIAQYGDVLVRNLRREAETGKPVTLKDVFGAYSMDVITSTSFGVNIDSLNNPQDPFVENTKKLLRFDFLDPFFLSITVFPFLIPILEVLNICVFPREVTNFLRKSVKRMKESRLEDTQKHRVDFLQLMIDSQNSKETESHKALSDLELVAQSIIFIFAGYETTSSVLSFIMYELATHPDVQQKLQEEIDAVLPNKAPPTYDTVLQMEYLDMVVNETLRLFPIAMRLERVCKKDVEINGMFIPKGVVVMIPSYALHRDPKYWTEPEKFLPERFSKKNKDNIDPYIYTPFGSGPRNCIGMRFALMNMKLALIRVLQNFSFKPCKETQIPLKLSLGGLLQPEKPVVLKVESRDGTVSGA

Cc1ccc2nc(O)c3cc(C(=O)N(C)c4ccc(C)c(C)c4)sc3c2c1
EC50 [1]: > 112 µM (not active) | EC50 [2]: > 112 µM (not active)

COc1ccc(COc2cc(-c3cccc(OC)c3)nc3ccc(NC(=O)c4ccc(OC)cc4)cc23)cc1
CC50 [3]: 15.8 µM (active) | IC50 [4]: > 79 µM (inactive)

CCCCOC(=O)c1ccc(N=Nc2c(O)nc(O)c(C#N)c2C)cc1
EC50 [1]: > 112 µM (not active) | EC50 [5]: > 300 µM (not active) | EC50 [6]: > 300 µM (inconclusive) | EC50 [2]: > 112 µM (not active)

Cc1ccc(/C=C/C(=O)O)cc1S(=O)(=O)N1CCCCC1
EC50 [1]: > 112 µM (not active) | EC50 [5]: > 300 µM (not active) | EC50 [6]: > 300 µM (not active) | EC50 [2]: > 112 µM (not active)

CN(C)c1ccc(-c2nc(O)c3ccccc3n2)cc1
EC50 [1]: 8.02 µM (active) | EC50 [2]: 33.4 µM (active)

CC(=O)O/N=C1\C(=O)N(Cc2ccc(C)cc2)c2ccccc21
IC50 [7]: 15.5 µM (not active)

Cc1nnc(SCC(=O)N/N=C/c2cn(-c3ccccc3)nc2-c2ccccc2)n1-c1ccccc1
IC50 [4]: > 79 µM (inactive)

O=C(CCc1nc(O)c2ccccc2n1)N1CCN(S(=O)(=O)c2cc(Cl)ccc2Cl)CC1
IC50 [4]: > 79 µM (inactive)

CCN(CC)C(=O)CSc1nnc(-c2cc(OC)cc(OC)c2)o1
IC50 [7]: > 50 µM (not active)

CC(C)(C)N1C(=O)NC(=O)/C(=C/Nc2ccc3c(c2)CCC3)C1=O
CC50 [3]: > 40 µM (active)

CCOc1cc2[nH]c(=S)n(CCC(=O)NCc3ccco3)c(=O)c2cc1OCC
EC50 [1]: > 112 µM (not active) | EC50 [2]: > 112 µM (not active)

CCOCCCn1/c(=N/C(=O)c2cccs2)c(C#N)cc2c(=O)n3cccc(C)c3nc21
EC50 [5]: > 300 µM (not active) | EC50 [6]: > 150 µM (not active)

C[C@@H](OC(=O)c1[nH]cnc1C(=O)NCc1ccc(CNC(=O)OC(C)(C)C)cc1)c1ccccc1
IC50 [4]: > 79 µM (inactive)

COc1cc(OC)c(C2C(C#N)=C(N)OC3=C2C(=O)CC(C)C3)cc1OC (configuration not stated)
EC50 [5]: > 300 µM (not active) | EC50 [6]: > 300 µM (not active)

O=C(O)c1ccccc1-n1c2ccccc2c2ccccc21
EC50 [5]: > 300 µM (not active) | EC50 [6]: > 300 µM (not active)

Cc1ccc(C(=O)c2oc3nc(C)cc(C)c3c2N)cc1
AC50 [8]: 0.891 µM (inconclusive) | EC50 [9]: > 38 µM (not active) | AC50 [10]: 10 µM (inconclusive) | EC50 [11]: > 160 µM (inactive)

N#CC1=C(N)Oc2cc(N)ccc2C1c1ccc(F)cc1 (configuration not stated)
AC50 [12]: 2.78 µM (active)

COc1ccc(/C=N/NC(=O)CCc2c(C)n[nH]c2C)cc1O
AC50 [12]: 3.71 µM (active)

COC(=O)c1c(NC(=O)CC2Nc3ccccc3NC2=O)sc(C)c1C (configuration not stated)
AC50 [10]: 25.1 µM (inconclusive) | AC50 [13]: 17.8 µM (inconclusive) | EC50 [5]: > 300 µM (not active) | EC50 [6]: > 300 µM (inconclusive)

CC(C)c1cc(NC(=O)CCl)on1
EC50 [14]: > 150 µM (inconclusive) | EC50 [15]: > 150 µM (not active) | EC50 [16]: > 150 µM (not active) | EC50 [17]: > 150 µM (not active)

CCOC(=O)c1c(N)sc(C(=O)N2CCCCCC2)c1C
IC50 [7]: > 50 µM (not active)

CCCC1=Nc2cc(C(=O)N3CCC(C(=O)OCC)CC3)ccc2Sc2ccccc21
EC50 [14]: 126 µM (active) | EC50 [15]: > 150 µM (not active) | EC50 [16]: > 150 µM (not active) | EC50 [17]: > 150 µM (not active)

Cc1cc2ccccc2nc1SCC(=O)N1c2ccccc2CC1C (configuration not stated)
EC50 [1]: > 112 µM (not active) | EC50 [2]: 11.9 µM (active)

COc1ccc(N2CCN(C(=O)c3ccc(C)cc3Cl)CC2)cc1
AC50 [12]: 3.97 µM (active)

CC(C)(O)[C@H]1O[C@H]2CC[C@@]3(C)[C@@](O)(CC[C@H]4Cc5c([nH]c6ccccc56)[C@@]43C)C2=CC1=O [PAXILLINE]
CC50 [3]: > 40 µM (active) | EC50 [5]: 16.7 µM (active) | EC50 [6]: 12.3 µM (active)

Cc1c(C2Nc3ccccc3C(=O)N2O)cnn1C (configuration not stated)
IC50 [4]: > 79 µM (inactive)

Cn1c(CN2CCCC2)nc2cc(NC(=O)COc3ccccc3)ccc21
EC50 [1]: > 112 µM (not active) | EC50 [2]: > 112 µM (not active)

C/C(=N\Nc1ccc([N+](=O)[O-])cc1)c1cccc(N)c1
AC50 [12]: 0.14 µM (active) | AC50 [10]: 17.8 µM (inconclusive) | CC50 [18]: 22 µM (active)

O=C(c1ccc(C[S+]([O-])Cc2ccc(Cl)cc2)o1)N1CCN(c2ccccc2)CC1 (configuration not stated)
AC50 [12]: > 100 µM (inactive)

C=CC[C@@H](CC(=O)N[C@H](CO)Cc1ccccc1)C(=O)N[C@@H](COC(=O)[C@@H](CC=C)CC(=O)OC(C)(C)C)Cc1ccccc1
IC50 [4]: 12.1 µM (active)

CN(CC(=O)Nc1c(Cl)cccc1Cl)C(=O)Cn1[nH]c(=O)c2ccccc2c1=O
IC50 [4]: > 79 µM (inactive)

Cn1c2[n+](c3ccc(Cl)cc3c1=O)Cc1ccccc1-2
EC50 [1]: > 112 µM (not active) | EC50 [2]: > 112 µM (not active)

Cc1ccc(C(=O)O)cc1-n1c(C)cc(C=O)c1C
EC50 [5]: > 300 µM (not active) | EC50 [6]: > 300 µM (not active)

COc1ccc(OC)c(NC(=O)CSc2nc(N)c(-c3ccccc3)c(O)n2)c1
EC50 [1]: > 112 µM (not active) | EC50 [2]: > 112 µM (not active)

CN(C)c1ccnc(Oc2ccc(C(C)(C)C)cc2)c1C#N
IC50 [7]: 4.48 µM (not active)

Cc1[nH]c2ccccc2c1CCN(Cc1cccnc1)C(S)=Nc1cccc(F)c1
IC50 [7]: 44.4 µM (not active) | EC50 [19]: 0.698 µM (active) | EC50 [20]: > 60 µM (not active)

Cc1ccc(NC(=O)c2[nH]cnc2C(=O)NCCCCCNC(=O)OC(C)(C)C)cc1
IC50 [4]: > 79 µM (inactive)

Cc1cc(/C=C2\SC(Nc3ccc(F)cc3)=NC2=O)c(C)n1-c1ccc(S(N)(=O)=O)cc1
CC50 [3]: 12 µM (active)

Cc1ccc(C)c(NS(=O)(=O)c2ccc(OCC(=O)NCc3cccnc3)cc2)c1
EC50 [14]: > 150 µM (not active) | EC50 [15]: 18.1 µM (active) | EC50 [16]: > 150 µM (inconclusive) | AC50 [21]: 8.78 µM (active) | EC50 [17]: > 150 µM (not active)

COc1cc(NC(=O)CN2c3ccccc3CC2C)cc(OC)c1OC (configuration not stated)
AC50 [12]: 0.394 µM (active)

COc1ccc(C(C(=O)NC2CCCC2)N(C(=O)c2snc(C(N)=O)c2N)c2cccc(O)c2)cc1 (configuration not stated)
IC50 [4]: > 79 µM (inactive)

O=C1N[C@H](Cc2c[nH]c3ccccc23)COC(=O)[C@H](Cc2ccc(F)cc2)C/C=C\C[C@H]1CC(=O)N(CCO)Cc1ccccc1
IC50 [4]: > 79 µM (inactive)

Cc1cc(Cl)ccc1NNC(=O)CCc1ccccc1
CC50 [3]: > 40 µM (active)

CCOc1cc(NC(=O)CCl)c(OCC)cc1NC(C)=O
CC50 [3]: 25.5 µM (active)

CC(=O)c1ccc(-c2ccc(C(=O)N3CCN(c4ccc(F)cc4)CC3)o2)cc1
IC50 [7]: 6.42 µM (not active)

Cc1ccc(C(C)C)c(OCCN=C(S)Nc2cccc3ccccc23)c1
IC50 [7]: 6.63 µM (not active)

COc1cc(C(=O)N/N=C/c2sc(N3CCOCC3)nc2-c2ccccc2)cc(OC)c1OC
IC50 [4]: 9.3 µM (active)
